Converted amounts (≈) assume the structure as drawn.
Assays:
Format in all cases: functional
[1] = system: Candida tropicalis; assay: Antifungal activity against Candida tropicalis
[2] = system: Candida parapsilosis; assay: Antifungal activity against Candida parapsilosis; conditions: Lodderomyces parapsilosis
[3] = system: Trichophyton rubrum; assay: Antifungal activity against Trichophyton rubrum
[4] = system: Sporothrix schenckii; assay: Antifungal activity against Sporothrix schenckii
[5] = system: Cryptococcus neoformans; assay: Antifungal activity against Cryptococcus neoformans
[6] = system: Fonsecaea pedrosoi; assay: Antifungal activity against Fonsecaea pedrosoi
[7] = system: Candida albicans; assay: Antifungal activity against Candida albicans
[8] = system: Aspergillus fumigatus; assay: Antifungal activity against Aspergillus fumigatus

Row | SMILES | MIC80 [1] [µg/mL] | MIC80 [2] [µg/mL] | MIC80 [3] [µg/mL] | MIC80 [4] [µg/mL] | MIC80 [5] [µg/mL] | MIC80 [6] [µg/mL] | MIC80 [7] | MIC80 [8] [µg/mL]
1 | CN(Cc1ccc(-n2cnn(Cc3cc(F)ccc3Br)c2=O)cc1)CC(O)(Cn1cncn1)c1ccc(F)cc1F (stereo not drawn) | 0.25 (≈ 0.398 µM) | 0.008 (≈ 0.0127 µM) | 2 (≈ 3.18 µM) | 16 (≈ 25.5 µM) | 0.5 (≈ 0.796 µM) | 0.25 (≈ 0.398 µM) | 0.002 µg/mL | 32 (≈ 50.9 µM)
2 | OC(CN1CCN(c2ccncc2)CC1)(Cn1cncn1)c1ccc(F)cc1F (stereo not drawn) | – | – | – | – | – | – | 2.5 µM | –
3 | Cc1ccc(C(=O)Cn2ncn(-c3ccc(CN(C)CC(O)(Cn4cncn4)c4ccc(F)cc4F)cc3)c2=O)c(C)c1 (stereo not drawn) | 0.0625 (≈ 0.106 µM) | 0.125 (≈ 0.213 µM) | 0.5 (≈ 0.851 µM) | 64 (≈ 109 µM) | 0.5 (≈ 0.851 µM) | 0.0625 (≈ 0.106 µM) | 0.002 µg/mL | 8 (≈ 13.6 µM)
4 | CN(Cc1ccc(-n2cnn(CC(=O)c3ccccc3)c2=O)cc1)CC(O)(Cn1cncn1)c1ccc(F)cc1F (stereo not drawn) | 0.0625 (≈ 0.112 µM) | 0.008 (≈ 0.0143 µM) | 8 (≈ 14.3 µM) | 64 (≈ 114 µM) | 8 (≈ 14.3 µM) | 1 (≈ 1.79 µM) | 0.016 µg/mL | 64 (≈ 114 µM)
5 | CCc1ccc(C(=O)Cn2ncn(-c3ccc(CN(C)CC(O)(Cn4cncn4)c4ccc(F)cc4F)cc3)c2=O)cc1 (stereo not drawn) | 0.5 (≈ 0.851 µM) | 2 (≈ 3.4 µM) | 32 (≈ 54.5 µM) | 64 (≈ 109 µM) | 16 (≈ 27.2 µM) | 8 (≈ 13.6 µM) | 0.25 µg/mL | 64 (≈ 109 µM)
6 | Cc1ccc(Cn2ncn(-c3ccc(CN(C)CC(O)(Cn4cncn4)c4ccc(F)cc4F)cc3)c2=O)cc1 (stereo not drawn) | 0.5 (≈ 0.916 µM) | 0.125 (≈ 0.229 µM) | 1 (≈ 1.83 µM) | 64 (≈ 117 µM) | 1 (≈ 1.83 µM) | 0.25 (≈ 0.458 µM) | 0.002 µg/mL | 32 (≈ 58.7 µM)
7 | CN(Cc1ccc(-n2cnn(CC(=O)c3ccc(Br)cc3)c2=O)cc1)CC(O)(Cn1cncn1)c1ccc(F)cc1F (stereo not drawn) | 0.0625 (≈ 0.0979 µM) | 1 (≈ 1.57 µM) | 0.25 (≈ 0.392 µM) | 64 (≈ 100 µM) | 0.25 (≈ 0.392 µM) | 0.0625 (≈ 0.0979 µM) | 0.002 µg/mL | 16 (≈ 25.1 µM)
8 | CN(Cc1cccc(C(F)(F)F)c1)CC(O)(Cn1cncn1)c1ccc(F)cc1F (stereo not drawn) | 0.25 (≈ 0.586 µM) | 4 (≈ 9.38 µM) | 8 (≈ 18.8 µM) | 64 (≈ 150 µM) | 0.5 (≈ 1.17 µM) | 1 (≈ 2.35 µM) | 0.032 µg/mL | 64 (≈ 150 µM)
9 | CN(Cc1ccc(-n2cnn(Cc3cccc(C(F)(F)F)c3)c2=O)cc1)CC(O)(Cn1cncn1)c1ccc(F)cc1F (stereo not drawn) | 0.0625 (≈ 0.104 µM) | 0.008 (≈ 0.0133 µM) | 0.5 (≈ 0.834 µM) | 64 (≈ 107 µM) | 0.125 (≈ 0.208 µM) | 0.125 (≈ 0.208 µM) | 0.002 µg/mL | 16 (≈ 26.7 µM)
10 | CN(Cc1ccc(-n2cnn(Cc3ccc(C(F)(F)F)cc3)c2=O)cc1)CC(O)(Cn1cncn1)c1ccc(F)cc1F (stereo not drawn) | 0.0625 (≈ 0.104 µM) | 0.008 (≈ 0.0133 µM) | 0.5 (≈ 0.834 µM) | 16 (≈ 26.7 µM) | 0.25 (≈ 0.417 µM) | 0.0625 (≈ 0.104 µM) | 0.001 µg/mL | 8 (≈ 13.3 µM)
11 | CN(Cc1ccc(-n2cnn(CC(=O)c3ccc(Cl)cc3)c2=O)cc1)CC(O)(Cn1cncn1)c1ccc(F)cc1F (stereo not drawn) | 0.0625 (≈ 0.105 µM) | 0.03 (≈ 0.0505 µM) | 4 (≈ 6.73 µM) | 64 (≈ 108 µM) | 2 (≈ 3.37 µM) | 0.25 (≈ 0.421 µM) | 0.004 µg/mL | 64 (≈ 108 µM)
12 | O=Cc1ccc(N2CCN(CC(O)(Cn3cncn3)c3ccc(F)cc3F)CC2)cc1 (stereo not drawn) | – | – | – | – | – | – | 0.035 µM | –
13 | CC(C)(C)c1ccc(N2CCN(CC(O)(Cn3cncn3)c3ccc(F)cc3F)CC2)cc1 (stereo not drawn) | – | – | – | – | – | – | 0.137 µM | –
14 | CN(Cc1ccc(-n2cnn(CC(=O)c3ccc(F)cc3F)c2=O)cc1)CC(O)(Cn1cncn1)c1ccc(F)cc1F (stereo not drawn) | 0.0625 (≈ 0.105 µM) | 0.016 (≈ 0.0269 µM) | 4 (≈ 6.72 µM) | 64 (≈ 107 µM) | 8 (≈ 13.4 µM) | 2 (≈ 3.36 µM) | 0.008 µg/mL | 64 (≈ 107 µM)
15 | CN(Cc1ccc(-n2cnn(CC(=O)c3ccc(C(C)(C)C)cc3)c2=O)cc1)CC(O)(Cn1cncn1)c1ccc(F)cc1F (stereo not drawn) | 0.5 (≈ 0.812 µM) | 2 (≈ 3.25 µM) | 64 (≈ 104 µM) | 64 (≈ 104 µM) | 32 (≈ 52 µM) | 2 (≈ 3.25 µM) | 0.0625 µg/mL | 64 (≈ 104 µM)
16 | Cc1ccc(C(=O)Cn2ncn(-c3ccc(CN(C)CC(O)(Cn4cncn4)c4ccc(F)cc4F)cc3)c2=O)cc1 (stereo not drawn) | 0.0312 (≈ 0.0545 µM) | 0.008 (≈ 0.0139 µM) | 1 (≈ 1.74 µM) | 64 (≈ 112 µM) | 0.125 (≈ 0.218 µM) | 0.125 (≈ 0.218 µM) | 0.002 µg/mL | 16 (≈ 27.9 µM)
17 | CN(Cc1ccc(-n2cnn(CC(=O)c3ccc(Cl)cc3Cl)c2=O)cc1)CC(O)(Cn1cncn1)c1ccc(F)cc1F (stereo not drawn) | 0.125 (≈ 0.199 µM) | 1 (≈ 1.59 µM) | 32 (≈ 50.9 µM) | 64 (≈ 102 µM) | 16 (≈ 25.5 µM) | 4 (≈ 6.36 µM) | 0.031 µg/mL | 64 (≈ 102 µM)
18 | OC(CN1CCN(c2cccc(C(F)(F)F)c2)CC1)(Cn1cncn1)c1ccc(F)cc1F (stereo not drawn) | – | – | – | – | – | – | 0.032 µM | –
19 | CN(Cc1ccc(N)cc1)CC(O)(Cn1cncn1)c1ccc(F)cc1F (stereo not drawn) | 0.5 (≈ 1.34 µM) | 2 (≈ 5.36 µM) | 16 (≈ 42.8 µM) | 64 (≈ 171 µM) | 8 (≈ 21.4 µM) | 4 (≈ 10.7 µM) | 0.0625 µg/mL | 64 (≈ 171 µM)
20 | CN(Cc1ccc(-n2cnn(Cc3ccc(OC(F)(F)F)cc3)c2=O)cc1)CC(O)(Cn1cncn1)c1ccc(F)cc1F (stereo not drawn) | 0.0312 (≈ 0.0508 µM) | 0.008 (≈ 0.013 µM) | 0.25 (≈ 0.406 µM) | 32 (≈ 52 µM) | 0.016 (≈ 0.026 µM) | 0.125 (≈ 0.203 µM) | 0.002 µg/mL | 8 (≈ 13 µM)
21 | Cc1ccc(C(=O)Cn2ncn(-c3ccc(CN(C)CC(O)(Cn4cncn4)c4ccc(F)cc4F)cc3)c2=O)c(Cl)c1 (stereo not drawn) | 0.0625 (≈ 0.103 µM) | 0.5 (≈ 0.822 µM) | 64 (≈ 105 µM) | 64 (≈ 105 µM) | 64 (≈ 105 µM) | 1 (≈ 1.64 µM) | 0.125 µg/mL | 32 (≈ 52.6 µM)
22 | CC(C)c1ccc(C(=O)Cn2ncn(-c3ccc(CN(C)CC(O)(Cn4cncn4)c4ccc(F)cc4F)cc3)c2=O)cc1 (stereo not drawn) | 0.125 (≈ 0.208 µM) | 0.06 (≈ 0.0997 µM) | 1 (≈ 1.66 µM) | 64 (≈ 106 µM) | 1 (≈ 1.66 µM) | 0.125 (≈ 0.208 µM) | 0.004 µg/mL | 32 (≈ 53.2 µM)
23 | CN(Cc1ccc(-n2cnn(CC(=O)c3ccc(F)cc3)c2=O)cc1)CC(O)(Cn1cncn1)c1ccc(F)cc1F (stereo not drawn) | 0.0625 (≈ 0.108 µM) | 0.06 (≈ 0.104 µM) | 2 (≈ 3.46 µM) | 64 (≈ 111 µM) | 1 (≈ 1.73 µM) | 0.0625 (≈ 0.108 µM) | 0.004 µg/mL | 64 (≈ 111 µM)
24 | CN(Cc1ccccc1[N+](=O)[O-])CC(O)(Cn1cncn1)c1ccc(F)cc1F (stereo not drawn) | 0.25 (≈ 0.62 µM) | 2 (≈ 4.96 µM) | 0.25 (≈ 0.62 µM) | 64 (≈ 159 µM) | 0.25 (≈ 0.62 µM) | 1 (≈ 2.48 µM) | 2 µg/mL | 4 (≈ 9.92 µM)
25 | N#Cc1ccc(N2CCN(CC(O)(Cn3cncn3)c3ccc(F)cc3F)CC2)cc1 (stereo not drawn) | – | – | – | – | – | – | 0.0324 µM | –
26 | CN(Cc1ccc(C(F)(F)F)cc1)CC(O)(Cn1cncn1)c1ccc(F)cc1F (stereo not drawn) | 1 (≈ 2.35 µM) | 2 (≈ 4.69 µM) | 0.5 (≈ 1.17 µM) | 64 (≈ 150 µM) | 0.25 (≈ 0.586 µM) | 0.125 (≈ 0.293 µM) | 0.031 µg/mL | 8 (≈ 18.8 µM)
27 | COc1ccc(C(=O)Cn2ncn(-c3ccc(CN(C)CC(O)(Cn4cncn4)c4ccc(F)cc4F)cc3)c2=O)cc1 (stereo not drawn) | 0.125 (≈ 0.212 µM) | 0.03 (≈ 0.0509 µM) | 4 (≈ 6.78 µM) | 64 (≈ 109 µM) | 8 (≈ 13.6 µM) | 1 (≈ 1.7 µM) | 0.016 µg/mL | 32 (≈ 54.3 µM)
28 | CCC(C)n1ncn(-c2ccc(N3CCN(c4ccc(OCC5COC(Cn6cncn6)(c6ccc(Cl)cc6Cl)O5)cc4)CC3)cc2)c1=O (stereo not drawn) [ITRACONAZOLE] | 0.125 (≈ 0.177 µM) | 0.25 (≈ 0.354 µM) | 1 (≈ 1.42 µM) | – | 2 (≈ 2.83 µM) | 0.5 (≈ 0.709 µM) | 0.125 µg/mL | 1 (≈ 1.42 µM)

From ChEMBL document CHEMBL1146065, “Structure-based optimization of azole antifungal agents by CoMFA, CoMSIA, and molecular docking” (2006)
